What all share (assay): inhibition of tumour cell growth, NCI panel, 48 h
Assay [1] concerns 786-0 renal.
In assay [2] the test system is CAKI-1 renal.
Assay [3] deals with CCRF-CEM leukemia.
Assay [4] concerns K-562 leukemia.
The test system of assay [5] is MCF7 breast.
The subject of assay [6] is NCI-H226 lung.
Assay [7] concerns NCI-H460 lung.
For assay [8], the system named is NCI-H522 lung.
Assay [9] deals with OVCAR-5 ovarian.
Assay [10] concerns PC-3 prostate.
The subject of assay [11] is SF-268 CNS.
The test system of assay [12] is SF-295 CNS.
The subject of assay [13] is SF-539 CNS.
Assay [14] has as its system SK-MEL-28 melanoma.
For assay [15], the system named is SNB-19 CNS.
In assay [16] the test system is SR leukemia.
Assay [17] concerns T-47D breast.
Assay [18] concerns UACC-62 melanoma.
Assay [19] relates to UO-31 renal.
For assay [20], the system named is A498 renal.

SMILES strings stand for the structures.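 Interpolation was linear, between the two tested concentrations surrounding the appropriate level; five concentrations were tested over 48 hours in 96-well plates. TGI is the concentration that stops growth completely.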

On to `CCOC(=O)NC(Nc1ccc(S(=O)(=O)Nc2ncccn2)cc1)(C(=O)OCC)C(F)(F)F` (configuration not stated), for which the TGI in assay [1], in assay [2], in [3], in [4], in [5] and in assay [6] was greater than 100 µM in each case. Also, the TGI in [7], in [8], in assay [9], in [10], in [11] and in assay [12] was greater than 100 µM throughout. For the same compound, the TGI in assay [13], in assay [14], in assay [15], in assay [16], in assay [17] and in assay [18] was greater than 100 µM in each case. The same compound yielded a TGI in assay [19] greater than 100 µM.
For `CC[C@@H]1/C=C/C=C/C[C@H](C)[C@@H](O)[C@](C)(O)C(=O)[C@H](C)[C@@H](O)[C@H](C)C(=O)[C@H](C)[C@@H](O)[C@H](C)/C=C/C(=O)O[C@H]2[C@@H](C)[C@@H](CC1)O[C@]1(O[C@H](CC(C)O)[C@H](C)CC1=O)[C@@H]2C` (some centres not stated), the TGI is 12.1 µM in [1]; 7.93 µM in assay [20]; 18 µM in assay [2]; greater than 16 µM in [3]; 14.5 µM in assay [4]; 4.7 µM in assay [5]. Besides, the TGI in [7] came to 6.85 µM; in assay [8], 6.59 µM; in assay [9], 8.25 µM; in [10] it was 6.41 µM; in assay [11], 7.93 µM; in assay [12], 0.114 µM. The TGI in assay [13] was 8.75 µM; in assay [14], greater than 19.6 µM; in assay [15], greater than 25 µM; in assay [16], 12.8 µM; in assay [17], greater than 25 µM; in assay [18], 6.68 µM. This compound also came in with a TGI in assay [19] greater than 20.4 µM.
Turning to `CC1CN=C(Nc2ccc(S(N)(=O)=O)cc2)S1` (configuration not stated), the TGI in assay [1], in [20], in assay [2], in assay [3], in assay [4] and in [5] was greater than 100 µM in each case. Moreover, the TGI in assay [7] is greater than 100 µM; in assay [9], greater than 100 µM; in assay [10] it was greater than 10 µM; in assay [11], greater than 100 µM; in [12], greater than 100 µM; in assay [13], greater than 100 µM. Also, the TGI in [14], in assay [15], in [16], in assay [17] and in assay [19] was greater than 100 µM each time.
In the case of `CC(=O)NCc1nc(C#N)c(N)o1`, the TGI in [1], in assay [20], in assay [2], in assay [3], in assay [4] and in assay [5] was greater than 100 µM each time. Also, the TGI in assay [6], in assay [7], in assay [8], in [9], in assay [10] and in [11] was greater than 100 µM in each case. The TGI in assay [12], in [13], in [14], in assay [15], in [17] and in assay [18] was greater than 100 µM throughout. In assay [19], the TGI is greater than 100 µM.
As to `S=C1Cc2c([nH]c3ccccc23)-c2ccccc2N1`, the TGI in [1] is greater than 100 µM; in assay [2] it was 79 µM; in [3], greater than 100 µM; in assay [4], greater than 100 µM; in assay [5], greater than 100 µM; in assay [6] it was 89.5 µM. In addition, the TGI in assay [7], in assay [9], in [10], in [11], in [12] and in assay [13] was greater than 100 µM in each case. In addition, the TGI in [14] is greater than 100 µM; in assay [15], greater than 100 µM; in [16], greater than 100 µM; in [17], greater than 100 µM; in assay [18], greater than 100 µM; in assay [19] it was 58.9 µM.
Take `CCN(CC)Cc1cc(Nc2ccnc3ccc4c(nnn4C)c23)ccc1O`: the TGI in assay [1] was 20.8 µM; in assay [2], 33.3 µM; in assay [3] it was 35.7 µM; in [4] it was 33 µM; in [5] it was 16.7 µM; in [7], 14.2 µM. In addition, the TGI in assay [8] came out at 86 µM; in [9], 33.9 µM; in [10], 20.8 µM; in [11] it was 29.9 µM; in assay [12], 25.9 µM; in assay [13], 18.4 µM. Also, the TGI in assay [14] is 17.8 µM; in assay [15], 21.3 µM; in [16], 18.6 µM; in [17], 63.5 µM; in assay [18] it was 30.9 µM; in assay [19], 23.6 µM.
With `CCOc1cc(NC(C)=O)ccc1C(=O)NN1C(=O)C(Oc2ccccc2)C1c1ccc(O)c(OC)c1` (configuration not stated), the TGI in [1] is greater than 100 µM; in [2], greater than 100 µM; in assay [3] it was 54.5 µM; in assay [4], greater than 100 µM; in [5] it was greater than 100 µM; in assay [6] it was greater than 100 µM. The TGI in assay [9], in assay [10], in assay [12], in assay [13], in assay [14] and in assay [15] was greater than 100 µM each time. Moreover, the TGI in [16] was greater than 100 µM; in assay [17], 77.9 µM; in assay [19] it was greater than 100 µM.
For the compound `COc1cccc(C2c3cc4c(cc3OC(N3CCCC3)C2C)OCO4)c1` (configuration not stated), the TGI was determined as 33.7 µM in [1]; 8.61 µM in [2]; 17.1 µM in assay [3]; 5.72 µM in assay [4]; 51.5 µM in assay [5]; 22.5 µM in assay [8]. For the same compound, the TGI in assay [9] was found to be 82.1 µM; in [10] it was 46.9 µM; in assay [11], 76.8 µM; in assay [12], 37.8 µM; in [13], 24.9 µM; in [14] it was 32.9 µM. Besides, the TGI in [15] came out at 61.4 µM; in assay [16], 21.4 µM; in assay [17], 70.9 µM; in [18], 34.5 µM; in assay [19], 41.4 µM.

The record behind these values is PubChem BioAssay (NCI).
